Results from ChEMBL document CHEMBL4312044, “Pharmacokinetics-Driven Optimization of 7-Methylimidazo[1,5-a]pyrazin-8(7H)-one as Novel BRD4 Inhibitors” (ACS Med Chem Lett, 2019).

Key:
[1] = system: BXPC-3; assay: Antiproliferative activity against human BxPC3 cells assessed as reduction in cell viability at 2 uM by MTT assay relative to control; format: functional; settings: for inhibition at 2 µM: Homo sapiens, BXPC-3
[2] = biological target: T1, Bromodomain-containing protein 4 (Homo sapiens, UniProt O60885); assay: Inhibition of BRD4 bromodomain1 (unknown origin) using peptide H4 as substrate incubated for 15 mins followed by substrate addition and measured after 1 hr by alphascreen assay
[3] = biological target: T1, Bromodomain-containing protein 4; assay: Inhibition of BRD4 bromodomain2 (unknown origin) using peptide H4 as substrate incubated for 15 mins followed by substrate addition and measured after 1 hr by alphascreen assay
[4] = Metabolic stability in rat liver microsomes assessed as residue remaining at 10 uM incubated for 20 and 40 mins; format: ADME, Microsome; settings: read-out: Stability
[5] = system: HL-60; assay: Antiproliferative activity against human HL60 cells assessed as reduction in cell viability by MTT assay; format: functional, cell-based
[6] = Metabolic stability in mouse liver microsomes assessed as residue remaining at 10 uM incubated for 20 and 40 mins; format: ADME, Microsome; settings: read-out: Stability
[7] = system: Raji; assay: Antiproliferative activity against human Raji cells assessed as reduction in cell viability at 2 uM by MTT assay relative to control; format: functional; settings: for inhibition at 2 µM: Homo sapiens, Raji
[8] = Metabolic stability in human liver microsomes assessed as residue remaining at 10 uM incubated for 20 and 40 mins; format: ADME, Microsome; settings: read-out: Stability

Row | Structure (SMILES) | inhibition at 2 µM [1] [%] | IC50 [2] [nM] | IC50 [3] [nM] | remaining at 40 min, 10 µM [4] [%] | IC50 [5] [nM] | remaining at 40 min, 10 µM [6] [%] | inhibition at 2 µM [7] [%] | remaining at 40 min, 10 µM [8] [%] | inhibition (INH) [1] [%] | inhibition (INH) [7] [%]
1 | CCS(=O)(=O)Nc1ccc(Oc2cc(F)ccc2C)c(-c2cn(C)c(=O)c3cncn23)c1 | 2.9 | 22 | 34 | 7.6 | 440 | 11.2 | 33.8 | 13.2 |  | 
2 | Cn1cc(-c2cc(NS(C)(=O)=O)ccc2Oc2ccc(F)cc2)n2cncc2c1=O | 25.3 | 44 |  | 78 | 370 | 75.9 | 24.2 | 100 |  | 
3 | CCS(=O)(=O)Nc1ccc(Oc2cc(F)c(F)c(F)c2)c(-c2cn(C)c(=O)c3cncn23)c1 | 28.7 | 46 | 140 | 54.3 | 590 | 36 | 46 | 55.8 |  | 
4 | CCS(=O)(=O)Nc1ccc(Oc2cc(C)ccc2F)c(-c2cn(C)c(=O)c3cncn23)c1 | 28.8 | 46 | 21 | 5.7 | 270 | 4.6 | 49.9 | 14.1 |  | 
5 | Cc1noc(C)c1-c1cccc(Oc2ccc(NS(C)(=O)=O)cc2-c2cn(C)c(=O)c3cncn23)c1 | 31.7 | 162 | 179 |  | 1230 |  | 28.9 |  |  | 
6 | Cn1cc(-c2cc(NS(C)(=O)=O)ccc2Oc2cccc(Br)c2)n2cncc2c1=O | 36.1 | 57 | 61 | 34.9 | 450 | 67.2 | 29.4 | 45.9 |  | 
7 | CCS(=O)(=O)Nc1ccc(Oc2ccc(F)cc2F)c(-c2cn(C)c(=O)c3cncn23)c1 | 33.2 | 33 | 25 | 17.6 | 110 | 13.2 | 46.2 | 21.2 |  | 
8 | Cc1sc2c(c1C)C(c1ccc(Cl)cc1)=N[C@@H](CC(=O)OC(C)(C)C)c1nnc(C)n1-2 |  |  |  |  | 870 |  |  |  | 31.1 | 47.9
